ChEMBL document CHEMBL3392924, “MMV box selection for compounds with potential use in combination with artemisinin using S. cerevisiae”

Tested on: Saccharomyces cerevisiae
Test: Assay utilized the disc diffusion method with the observance of a clear zone indicating inhibition of growth. Synthetic complete medium containing 3% glycerol as a carbon source (SCG) was used in each assay. 10 uL of each compound was added to a paper disc which was placed on SCG and SCG+Artemisinin (0.2 uM) plates seeded with 10e6 yeast cells (WC081 strain: Mat a, leu2 delta 0, lys2 delta 0, ura3 delta 0, his3 delta 1, pdr1 delta::HIS3, pdr3 delta::kanMX4, derived from BY4742, regulators of Multi-drug resistance transporters have been deleted to enhance toxicity of compounds). Plates were incubated at 30 degrees C for 5 days and clear zones were measured. Compounds that produced a larger clear zone in the presence of artemisinin was considered to have an additive interaction with artemisinin. Results are reported as diameter of clear zone on SCG+artemisinin plates - diameter of clear zone on SCG plates without artemisinin.
Format: organism-based
Details: in vivo, 120 h

| Compound | Diameter of inhibition zone |
| --- | --- |
| COc1ccc(-n2ccnc2SCC(=O)Nc2cc(C)ccc2C)c(OC)c1 | 0 mm |
| CN(C)c1ccc(C=Cc2nc(=O)c3ccccc3o2)cc1 | 0 mm |
| Cc1ccc(-c2cc3c(nn2)-c2ccccc2C3=O)cc1 | 0 mm |
| Cc1ccc(Nc2nc(NCCO)c3ccccc3n2)cc1C | 0 mm |
| CCN(CC)CCNc1ncnc2c1[nH]c1ccc(Cl)cc12 | 0 mm |
| COc1ccc(Br)cc1C1Nc2ccc3ccccc3c2C2=C1C(=O)CC(c1ccccc1)C2 (centres undefined) | 0 mm |
| COc1ccc(NC(=O)C2c3ccccc3C(=O)N(CC(C)C)C2c2cccs2)cc1 (centres undefined) | 0 mm |
| OC(CNC1CCCCC1)Cn1c2ccccc2c2ccccc21 (centres undefined) | 0 mm |
| COc1ccc(NC(=O)C2c3ccccc3C(=O)N(CC(C)C)C2c2cccs2)cc1Cl (centres undefined) | 0 mm |
| COc1cc(OC)c(N(C)C(=O)c2cc3c(s2)-c2ccccc2S(=O)(=O)C3)cc1Cl | 0 mm |
| CC1CN(C(=O)c2sc3ccccc3c2Cl)CC(C)O1 (centres undefined) | 0 mm |
| O=[N+]([O-])c1ccc(C=NNc2nc3ccccc3[nH]2)cc1 | 0 mm |
| Cc1cc(Nc2ccc3ccccc3c2)n2ncnc2n1 | 7 mm |
| CCc1c(C)c(=N)c2ccccc2n1C.I | 0 mm |
| Cc1cc(C=C2SC(=Nc3ccccc3)N(C3CCCC3)C2=O)c(C)n1-c1ccc(Cl)cc1 | 0 mm |
| CCCCCCOC(=O)C1=C(C)NC(=O)NC1c1ccccc1F (centres undefined) | 0 mm |
| COc1cccc(NC(=O)[C@H](C(C)C)n2c(=O)[nH]c3ccccc3c2=O)c1 | 0 mm |
| c1ccc(Cn2c(N=Nc3c(Nc4ccccc4)ccc4ccccc34)nc3ccccc32)cc1 | 1 mm |
| Fc1ccc2[nH]c3c(NCCCN4CCOCC4)ncnc3c2c1 | 0 mm |
| CN(C)c1ccc(C(O)(c2ccc(N(C)C)cc2)c2ccc(N(C)C)cc2)cc1 [METHYLROSANILINE] | 0 mm |
| COc1ccc2c(=O)cc(C(Cl)(Cl)Cl)oc2c1 | 0 mm |
| O=C(O)C1Cc2c([nH]c3ccccc23)C(c2ccc(Cl)cc2Cl)N1 (centres undefined) | 0 mm |
| Cl.Oc1ccccc1CNCC12CC3CC(CC(C3)C1)C2 | 0 mm |
| CCOC(=O)c1cnc2c(C)cc(C)cc2c1Nc1ccc(OC)c(OC)c1 | 0 mm |
| C=CC12CCN(CC1)C(C(O)c1ccnc3ccc(OC)cc13)C2.Cl (centres undefined) | 0 mm |
| c1ccc2cc3c(Nc4ccc(N5CCOCC5)cc4)ccnc3cc2c1 | 0 mm |
| CCN(CC)CCNc1ccnc2cc(Cl)ccc12 | 0 mm |

| Compound | Diameter of inhibition zone |
| --- | --- |
| CSC1=NC(=Nc2c(C)cccc2C)C2(CCC(C(C)(C)C)CC2)N1c1ccc(Cl)cc1 (centres undefined) | 0 mm |
| CCOC(=O)C1=C(c2ccccc2)N=c2sc(=Cc3cc(C)n(-c4ccc(F)cc4)c3C)c(=O)n2C1c1cccc(OC)c1OC (centres undefined) | 0 mm |
| CCn1c(CN2CCN(Cc3ccccc3)CC2)nc2cc(NC(=O)c3cccs3)ccc21 | 0 mm |
| CCc1ccc(Nc2cc(C)c3ccc(O)cc3n2)cc1.Cl | 0 mm |
| COc1ccc(-c2nc3cc(Cc4ccc5[nH]c(-c6ccc(OC)cc6)nc5c4)ccc3[nH]2)cc1 | 0 mm |
| Cc1cccc(Nc2nc(N)c3ccccc3n2)c1.Cl | 0 mm |
| CCCc1cc(O)c2c3c(c(=O)oc2c1)CN(C)CC3 | 0 mm |
| CCOC(=O)c1cn(CC)c2cc(N3CCCCC3)c(F)cc2c1=O | 0 mm |
| COc1ccccc1NC1=C(N2CCCCC2)C(=O)c2ccccc2C1=O | 0 mm |
| COc1ccc(C2=C(c3ccc(OC)cc3)C3(c4ccccc4)C(=O)C2(c2ccccc2)C2C(=O)N(c4ccc(C)cc4)C(=O)C23)cc1 (centres undefined) | 0 mm |
| CCOC(=O)c1cn(CC)c2cc(N(C)CCc3ccc(OC)c(OC)c3)c(F)cc2c1=O | 0 mm |
| Cc1ccc(N2C(=O)C3C(C2=O)C2(c4ccccc4)C(=O)C3(c3ccccc3)C(c3ccccc3)=C2c2ccccc2)cc1 (centres undefined) | 0 mm |
| CCOC(=O)c1cnc2ccc(CC)cc2c1O | 0 mm |
| Cc1ccc(-c2cc3c(SCC(=O)Nc4cc(C(F)(F)F)ccc4Cl)nccn3n2)cc1 | 0 mm |
| Cc1cc(Nc2ccc(C)c(Cl)c2)n2nc(C(F)(F)F)nc2n1 | 0 mm |
| COc1ccc(C=C2SC(=N)N(c3ccccc3OC)C2=O)cc1 | 0 mm |
| CNCCCNc1ccnc2cc(Cl)ccc12 | 0 mm |
| Cc1ccc(N2C3c4ccccc4N(S(=O)(=O)c4ccc(C)cc4)C2c2ccccc2N3S(=O)(=O)c2ccc(C)cc2)cc1 | 0 mm |
| CCN1CCN(Cc2ccc(NC(=O)c3cc4ccc5cccnc5c4[nH]3)cc2)CC1 | 0 mm |
| CCC1(C)CC(CCNCc2ccccc2O)(c2ccc(C)cc2)CCO1 (centres undefined) | 0 mm |
| COc1ccc(-c2c(C)nn3c(N)c(C#N)cnc23)cc1OC | 0 mm |
| Cc1cc(Nc2ccc(Cl)cc2)n2nc(C(F)(F)F)nc2n1 | 0 mm |
| CCOc1ccc(-c2nonc2NC(=O)c2cccc(C)c2)cc1OCC | 0 mm |
| CC(C)(C)c1ccc(O)c(CNC2CCCCC2)c1 | 0 mm |
| CC1CCN(Cc2ccc(NC(=O)c3cc4ccc5cccnc5c4[nH]3)cc2)CC1 | 0 mm |
| CN1CCN(c2ccc(Nc3c4ccccc4nc4ccccc34)cc2)CC1 | 0 mm |
| CN(C)CCCNc1c2ccccc2nc2ccccc12 | 0 mm |

| Compound | Diameter of inhibition zone |
| --- | --- |
| COc1ccccc1CNC(=O)CCn1c(=O)[nH]c2ccsc2c1=O | 0 mm |
| COc1ccc(C(C)=O)cc1N1C(=O)C2C(C1=O)C1(c3ccccc3)C(=O)C2(c2ccccc2)C(c2ccc(C)cc2)=C1c1ccc(C)cc1 (centres undefined) | 0 mm |
| CCOC(=O)c1ccc2[nH]c(-c3ccccc3)cc(=O)c2c1 | 0 mm |
| Cc1ccc(-c2cc3nc4c(c(O)n3n2)CCCC4)cc1 | 0 mm |
| CCCc1c(CC)c(=N)c2ccccc2n1C | 0 mm |
| COc1ccc2c(c1)OC(O)(C(F)(F)C(F)(F)F)CC2=O (centres undefined) | 0 mm |
| CCOC(=O)c1c(C)n(-c2ccc(Cl)cc2)c2ccc(OC(=O)C=Cc3ccccc3)cc12 | 0 mm |
| CCCCCC(=O)N1c2ccccc2N=C2CC(c3ccc(OC)c(OC)c3)CC(O)=C2C1c1ccc(C(F)(F)F)cc1 (centres undefined) | 0 mm |
| Cc1cc(NCCN2CCCCC2)c2ccc3ccccc3c2n1 | 0 mm |
| C[n+]1c2ccccc2nc2ccc(NCCO)cc21 | 0 mm |
| Cc1cc(C)c2c(c1)OCN(Cc1ccccc1Cl)C2 | 0 mm |
| COc1ccccc1CNC(=O)CCn1c(=O)[nH]c2ccccc2c1=O | 0 mm |
| CCC(c1ccccc1)c1nn2c(-c3cccs3)nnc2s1 (centres undefined) | 0 mm |
| O=C(NCC(c1ccsc1)N1CCCCCC1)c1ccc(C(F)(F)F)cc1 (centres undefined) | 0 mm |
| Cc1cc(NC(=O)C2c3ccccc3C(=O)N(CC(C)C)C2c2cccs2)no1 (centres undefined) | 0 mm |
| CCOc1cc2c(cc1OCC)C(c1cc(OC)c(O)cc1Cl)NCC2 (centres undefined) | 0 mm |
| COc1ccc(-c2nc(NC(=O)CS(=O)(=O)c3ccc(F)cc3)sc2C)cc1 | 0 mm |
| CCCN(CCC)CC(O)COc1ccccc1C(=O)Nc1ccccc1 (centres undefined) | 0 mm |
| CCOC(=O)c1c(NC(=O)c2ccccc2)sc2c(O)c(CN(CC)CC)ccc12 | 0 mm |
| Cc1cc(C)cc(Nc2cc(C)nc3nc(C(F)(F)F)nn23)c1 | 0 mm |
| CSc1ccccc1C(=O)Nc1nc(-c2ccccn2)cs1 | 3 mm |
| COc1ccc(-c2cc3c(SCC(=O)Nc4cc(C(F)(F)F)ccc4Cl)nccn3n2)cc1 | 0 mm |
| COc1cccc(C=Cc2nc(=O)c3ccccc3o2)c1OC | 0 mm |
| CCN1CCCC1CNc1[nH]cnc2c3cc(Cl)ccc3nc1-2 (centres undefined) | 0 mm |
| COc1ccc(C(=O)Nc2nonc2-c2ccc(OC)c(OC)c2)cc1Cl | 0 mm |
